Assay results as given in article PMC11130353, “Using host-mimicking conditions and a murine cutaneous abscess model to identify synergistic antibiotic combinations effective against Pseudomonas aeruginosa” (Frontiers in Cellular and Infection Microbiology, 2024).
Values after ≈ are worked out from the molar mass of the structure shown. Read-outs that look alike come from different tables or passages of the source. Peptide text beside a SMILES is read from it.

Columns and labels:
[1] = system: P. aeruginosa PAO1; experiment: Minimum inhibitory concentration, broth microdilution; assay type: cell-based, Pseudomonas aeruginosa; conditions: for Fold change TCM vs MHB (MIC): MIC in TCM vs MIC in MHB; for MIC: Pseudomonas aeruginosa, PAO1
Description: (§1) For susceptibility testing under standard conditions, bacteria were cultured in Muller Hinton Broth MHB (Fort Richards Laboratories). […] Further susceptibility testing was also conducted in MHB supplemented with FBS (5% v/v) and DMEM supplemented with glucose (1% w/v) and MHB (10% v/v).
(§2) The minimum inhibitory concentration (MIC) of each antibiotic was determined using the broth microdilution method in 96-well plates. […] Briefly, antibiotics were two-fold serially diluted in MHB or TCM prior to adding 1 × 10^6 CFU mL^-1 bacteria. Plates were incubated at 37°C for 22-24 hours. The MIC was recorded as the lowest antibiotic concentration with no visible growth and the median value of at least three biological replicates reported.

[2] = system: P. aeruginosa LESB58; experiment: Murine high density subcutaneous skin abscess model; assay type: in vivo, Pseudomonas aeruginosa; conditions: for Area of dermoncecrosis, Mean: female Swiss Webster mice; for Area of dermoncecrosis, Mean / Area of dermoncecrosis, % reduction / CFU per abscess, Fold change / CFU per abscess, Geometric mean: day 3; for Area of dermoncecrosis, % reduction / CFU per abscess, Fold change: compared to the vehicle control
Description: Mice used in this study were female Swiss Webster aged approximately 6-7 weeks and sourced from the University of Otago Biomedical Research Facility. […] The subcutaneous abscess infection model was performed as previously described ([Pletzer et al., 2017]) with a higher inoculum. Briefly, the fur on the back of each mouse was removed by shaving and chemical depilation. Antibiotics were tested for skin toxicity by injecting 50 μL of antibiotic suspension subcutaneously into naïve mice, and subsequent inspection of the skin for inflammation on the next day. P. aeruginosa LESB58 was grown to mid-log phase in dYT broth, washed twice in sterile PBS (Gibco, pH 7.4), and resuspended in PBS to ~1 x 10^8 CFU per 50 μL inoculum. The bacterial suspension (50 μL) was injected subcutaneously into the right side of the dorsum, followed one hour later by 50 μL of antibiotic treatment injected directly into the infected area. […] Combination treatments were administered as a single 50 μL injection containing both antibiotics. The concentration of each antibiotic in the combination was the same as when it was used alone. Progression of the infection was monitored daily, and abscess dimensions were measured on day three using a calliper. On day three, abscess tissue and pus were excised, homogenized in sterile PBS using SPEX SamplePrep 1600 MiniG for five minutes and bacterial CFU counts determined by serial dilution. In this model, synergy was defined as being a significant difference between the combination treated group and the amalgamated group of single drug treated animals ([Fantin and Carbon, 1992]; [Pletzer et al., 2018]).
Statistical analysis was performed using GraphPad Prism 9.5.1. Bacterial CFU and abscess size data from in vivo experiments was analysed by Kruskal-Wallace test with Dunn’s correction for multiple comparisons. The data was considered significant when p-values were below 0.05 or 0.01 as indicated.

[3] = Description: Mice used in this study were female Swiss Webster aged approximately 6-7 weeks and sourced from the University of Otago Biomedical Research Facility. […] Briefly, the fur on the back of each mouse was removed by shaving and chemical depilation. Antibiotics were tested for skin toxicity by injecting 50 μL of antibiotic suspension subcutaneously into naïve mice, and subsequent inspection of the skin for inflammation on the next day. P. aeruginosa LESB58 was grown to mid-log phase in dYT broth, washed twice in sterile PBS (Gibco, pH 7.4), and resuspended in PBS to ~1 x 10^8 CFU per 50 μL inoculum. The bacterial suspension (50 μL) was injected subcutaneously into the right side of the dorsum, followed one hour later by 50 μL of antibiotic treatment injected directly into the infected area. […] Combination treatments were administered as a single 50 μL injection containing both antibiotics. The concentration of each antibiotic in the combination was the same as when it was used alone. Progression of the infection was monitored daily, and abscess dimensions were measured on day three using a calliper. On day three, abscess tissue and pus were excised, homogenized in sterile PBS using SPEX SamplePrep 1600 MiniG for five minutes and bacterial CFU counts determined by serial dilution.
[4] = system: P. aeruginosa LESB58-lux; experiment: In vitro synergy, checkerboard assay (luminescence readout); assay type: cell-based, Pseudomonas aeruginosa; conditions: LESB58-lux; for FICI, drug combined with CAZ / FICI, drug combined with CZA: FICI <= 0.5 indicates synergy
Description: (§3) For susceptibility testing under standard conditions, bacteria were cultured in Muller Hinton Broth MHB (Fort Richards Laboratories). Host mimicking conditions in vitro were simulated using tissue culture medium (TCM) consisting of Dulbecco’s modified Eagle medium (DMEM; Gibco #11965) supplemented with FBS (Moregate Biotech) (5% v/v) and glucose (1% w/v). Further susceptibility testing was also conducted in MHB supplemented with FBS (5% v/v) and DMEM supplemented with glucose (1% w/v) and MHB (10% v/v).
(§4) The P. aeruginosa LESB58.lux strain was used for in vitro synergy experiments with azithromycin in MHB and all antibiotic combinations in TCM to determine bacterial growth (as visual inspection and absorbance measurements were unreliable). Synergy was determined using the checkerboard method ([Berenbaum, 1978]; [Pletzer and Hancock, 2018]) in at least triplicate. Each antibiotic was two-fold serially diluted in sterile water before transferring to a 96-well plate containing 1 × 10^6 CFU mL^-1 bacteria in MHB or TCM. Plates were incubated at 37°C for 22-24 hours. The MIC alone or in combination was recorded as the lowest antibiotic concentration with no visible growth. For experiments using the LESB58.lux strain no visible growth was defined as an at least 95% reduction compared to the no antibiotic growth control in luminescence detected using a ClarioStar plate reader. The fractional inhibitory concentration index (FICI) was calculated as [(MICA in combination)/MICA] + [(MICB in combination)/MICB]. FICI values of 0.5 or below indicated synergy, while values above 0.5 up to and including 1 were taken to indicate additivity. FICI values above 1 indicate indifference or antagonism ([Odds, 2003]).

[5] = system: P. aeruginosa LESB58; experiment: microbe, parasite or virus in culture; assay type: cell-based, Pseudomonas aeruginosa; conditions: for MIC in TCM: TCM (DMEM + 1% glucose + 5% FBS); for Fold change TCM vs MHB (MIC): MIC in TCM vs MIC in MHB; for MIC: Pseudomonas aeruginosa
Description: as §1
as §2, with “Plates were incubated at 37°C for 22-24 hours.” left out

[6] = system: P. aeruginosa LESB58; experiment: In vitro synergy, checkerboard assay; assay type: cell-based, Pseudomonas aeruginosa; conditions: MHB; for FICI, drug combined with CAZ / FICI, drug combined with CZA: FICI <= 0.5 indicates synergy
Description: as §3, §4

[7] = Colistin, tigecycline and tobramycin groups (shared vehicle, CAZ and CZA mice), 50 μL s.c. 1 h after infection, CAZ or CZA 50, CST 1.25, TGC 2.5, TOB 2 mg/mL, vehicle 0.9% saline
[8] = Colistin, tigecycline and tobramycin groups
[9] = 50 μL injected subcutaneously, skin inspected next day
[10] = female, Swiss Webster, mouse, in vivo, sc, 1 day
[11] = LESB58, read-out: MIC in MHB, MHB, 20-24 h
[12] = LESB58, read-out: MIC in TCM, TCM (DMEM + 1% glucose + 5% FBS), 20-24 h
[13] = Azithromycin group, CAZ or CZA 50 mg/mL, AZM 6.25 mg/mL

| SMILES | Fold change TCM vs MHB (MIC) [1] | Area of dermoncecrosis, Mean [2, 7] | Area of dermoncecrosis, % reduction [2, 8] | CFU per abscess, Fold change [2, 8] | CFU per abscess, Geometric mean [2, 8] | Highest tolerated dose tested [3, 9] | Fold decrease in CAZ MIC, drug combined with CAZ ([4]; TCM) | Fold decrease in CZA MIC, drug combined with CZA ([4]; TCM) | Fold decrease in other MIC, drug combined with CAZ ([4]; TCM) | Fold decrease in other MIC, drug combined with CZA ([4]; TCM) | FICI, drug combined with CAZ ([4]; TCM) | FICI, drug combined with CZA ([4]; TCM) | MIC in TCM ([5]; 20-24 h) | Fold decrease in CAZ MIC, drug combined with CAZ [6] | Fold decrease in CZA MIC, drug combined with CZA [6] | Fold decrease in other MIC, drug combined with CAZ [6] | Fold decrease in other MIC, drug combined with CZA [6] | FICI, drug combined with CAZ [6] | MIC ([1]; read-out: MIC in MHB) | MIC ([1]; read-out: MIC in TCM) | other results |
| --- | --- | --- | --- | --- | --- | --- | --- | --- | --- | --- | --- | --- | --- | --- | --- | --- | --- | --- | --- | --- | --- |
| CC[C@H](C)CCCCC(=O)N[C@@H](CCN)C(=O)N[C@H](C(=O)N[C@@H](CCN)C(=O)N[C@H]1CCNC(=O)[C@H]([C@@H](C)O)NC(=O)[C@H](CCN)NC(=O)[C@H](CCN)NC(=O)[C@H](CC(C)C)NC(=O)[C@@H](CC(C)C)NC(=O)[C@H](CCN)NC1=O)[C@@H](C)O [CST, colistin] (HELM PEPTIDE1{[CC[C@H](C)CCCCC(=O)[*:2]].[Dab].T.[Dab].[Dab].[Dab].[dL].L.[Dab].[Dab].T}$PEPTIDE1,PEPTIDE1,5:R3-11:R2$$$V2.0) | 10 | 38.6 mm^2 | 58.9% | -107.4 | 2.3 × 10^6 CFU per abscess | 2 mg/mL | 8 | 4 | 4 | 4 | 0.38 | 0.5 | 12.5 µg/mL | 4 | 4 | 8 | 8 | 0.38 |  |  | MIC in MHB ([1]; MHB): 2.5 µg/mL (≈ 2.14 µM); MIC in TCM ([1]; TCM): 25 µg/mL (≈ 21.4 µM); Area of dermoncecrosis, % reduction ([2]; Colistin, tigecycline and tobramycin groups, listed as colistin): 59%; Fold reduction of bacterial load (CFU) relative to vehicle ([2]; Colistin, tigecycline, tobramycin experiments): ~107; Toxic (visible skin irritation, inflammation, blood vessels, swelling) [3, 9]: 5 mg/mL; FICI, drug combined with CAZ ([4]; TCM, listed as colistin): synergised; FICI, drug combined with CZA ([4]; TCM, listed as colistin): synergised; MIC in MHB ([5]; MHB, 20-24 h): 3.13 µg/mL (≈ 2.68 µM) |
| CN(C)c1cc(NC(=O)CNC(C)(C)C)c(O)c2c1C[C@H]1C[C@H]3[C@H](N(C)C)C(O)=C(C(N)=O)C(=O)[C@@]3(O)C(O)=C1C2=O [TGC, tigecycline] | >40 | 86.7 mm^2 | 7.7% | -2.4 | 1.0 × 10^8 CFU per abscess | 12 mg/mL |  |  |  |  |  |  | entirely lost its efficacy | 4 | 8 | 8 | 8 | 0.38 | 12.5 µg/mL (≈ 21.3 µM) | > 500 µg/mL | Toxic (visible skin irritation, inflammation, blood vessels, swelling) [3, 10]: 25 mg/mL; Fold change TCM vs MHB (MIC) [5]: >80; MIC [5, 11]: 6.25 µg/mL (≈ 10.7 µM); MIC [5, 12]: > 500 µg/mL; FICI, drug combined with CZA [6]: 0.25; FICI, drug combined with CAZ ([6]; listed as tigecycline): < 0.4; FICI, drug combined with CZA ([6]; listed as tigecycline): < 0.4 |
| CC[C@H]1OC(=O)[C@H](C)[C@@H](O[C@H]2C[C@@](C)(OC)[C@@H](O)[C@H](C)O2)[C@H](C)[C@@H](O[C@@H]2O[C@H](C)C[C@H](N(C)C)[C@H]2O)[C@](C)(O)C[C@@H](C)CN(C)[C@H](C)[C@@H](O)[C@]1(C)O [AZM, azithromycin] | >-300 |  |  |  |  | 25 mg/mL | 8 | 2 | 2 | 2 | 0.625 | 1 |  |  |  |  |  |  | 250 µg/mL (≈ 334 µM) | < 0.78 µg/mL | Fold reduction of bacterial load (CFU) relative to vehicle ([2]; Azithromycin experiments): ~ 42; CFU per abscess, Fold change ([2]; Azithromycin group): -42.1; Area of dermoncecrosis, % reduction [2, 13]: 36.4%; Area of dermoncecrosis, % reduction ([2]; Azithromycin group, CAZ or CZA 50 mg/mL, AZM 6.25 mg/mL, listed as azithromycin): 36%; CFU per abscess, Geometric mean [2, 13]: 8.5 × 10^6 CFU per abscess; Area of dermoncecrosis, Mean ([2]; Azithromycin group, 50 μL s.c. into infected area 1 h after infection, CAZ or CZA 50 mg/mL, AZM 6.25 mg/mL, vehicle citric acid in saline): 64.5 mm^2; Toxic (visible skin irritation, inflammation, blood vessels, swelling) [3, 10]: 50 mg/mL; Fold decrease in CAZ MIC, drug combined with CAZ ([4]; MHB): 4; Fold decrease in CZA MIC, drug combined with CZA ([4]; MHB): 4; Fold decrease in other MIC, drug combined with CAZ ([4]; MHB): 4; Fold decrease in other MIC, drug combined with CZA ([4]; MHB): 2; FICI, drug combined with CAZ ([4]; MHB): 0.5; FICI, drug combined with CZA ([4]; MHB): 0.75; FICI, drug combined with CZA ([4]; MHB, listed as azithromycin): did not act synergistically; Fold change TCM vs MHB (MIC) [5]: -100; MIC [5, 11]: 62.5 µg/mL (≈ 83.4 µM); MIC [5, 12]: 0.625 µg/mL; Fold increase of efficacy in TCM compared to MHB ([5]; host mimicking TCM vs MHB): 100 |
